Source: PMC9458059, “Design, Synthesis and Biological Evaluation of New Carbohydrate-Based Coumarin Derivatives as Selective Carbonic Anhydrase IX Inhibitors via “Click” Reaction” (Molecules, 2022)
Like-named read-outs stand apart in the source and are kept apart here.

Columns and labels:
hCA I = target: T1, hCA I (Homo sapiens, UniProt P00915); assay: CA inhibition by the esterase assay, hCA I; type: biochemical; details: human recombinant enzyme, 4-nitrophenylacetate as substrate
T1 construct: purchased
T1 sequence (P00915 whole entry): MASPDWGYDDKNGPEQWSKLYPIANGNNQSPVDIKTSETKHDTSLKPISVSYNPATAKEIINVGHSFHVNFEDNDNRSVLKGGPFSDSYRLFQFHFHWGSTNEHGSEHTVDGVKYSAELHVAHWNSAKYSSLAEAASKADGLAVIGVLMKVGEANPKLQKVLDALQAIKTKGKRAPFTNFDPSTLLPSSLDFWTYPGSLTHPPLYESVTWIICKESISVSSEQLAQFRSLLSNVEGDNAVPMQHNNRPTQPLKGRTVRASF
Procedure: (§1) The esterase assay was used for testing the inhibitory activities of target compounds against carbonic anhydrases. […] Next, the stock solution of inhibitor was diluted to the specified concentration by using analysis buffer. […] In addition, the purchased CA was diluted with analysis buffer and added to 96-well plates. Next, different concentrations of inhibitors were also added to 96-well plates. To form the inhibitors and enzymes complex, E-I solutions were preincubated together for 4 h before the test at room temperature. Meanwhile, the nonenzymatic hydrolysis rates were tested by the blank control experiments. The absorbances were determined by using multifunctional enzyme marking instrument.

hCA II = hCA II (Homo sapiens, UniProt P00918); assay: CA inhibition by the esterase assay, hCA II; type: biochemical; details: human recombinant enzyme, 4-nitrophenylacetate as substrate
Procedure: as §1

hCA IX = target: T2, hCA IX (Homo sapiens, UniProt Q16790); assay: CA inhibition by the esterase assay, hCA IX; type: biochemical
T2 construct: purchased
Procedure: as §1

HT-29 cells = assay: Cell viability MTT assay, HT-29; type: cell-based; details: Homo sapiens
Procedure: (§2) In the present study, the potential cytotoxicity of compounds 10a–10p was evaluated in vitro by MTT assay. […] So, half of each cell line were subjected to hypoxic conditions (0.5% O2, 5% CO2 and 94.5% N2) for inducing the expression of CA IX and the other half were incubated under normal conditions (normoxia). Subsequently, all synthesized derivatives were screened at a concentration of 100 μM to test their cytotoxicity in mentioned above cells.
(§3) The two human cancer cell lines were cultivated for 24 h at 37 °C in a 96-well plate. Subsequently, different concentrations of inhibitors were added to 96-well plate and then was incubated for 96 hours. After the MTT solution was added to per well, cancer cells were further incubated for 4 h at 37 °C. Finally, formazan crystals were dissolved by using DMSO. The cancer cells were from American Type Culture Collection.

MDA-MB-231 cells = assay: Cell viability MTT assay, MDA-MB-231; type: cell-based; details: Homo sapiens
Procedure: as §2, §3

HT-29 cancer cells = assay: Extracellular pH measurement, HT-29; type: cell-based, human; details: HT-29, 0.1 and 0.5 mM, 48 h, normoxia and hypoxia
Procedure: (§4) One important feature of CA IX is regulating the pH of tumor cells. The expression of CA IX in solid tumors will make the extracellular pH become more acidic to promote tumor growth and metastasis. Therefore, the effect on extracellular pH of the representative compounds 10a and 10h was tested in hypoxia and normoxic conditions. […] Especially, the extracellular acidification of these two cancer cells could be slightly reversed by this compound under normoxic condition. In addition, the reversal of extracellular acidification is more significant under hypoxia condition. Furthermore, a dose-dependent effect was observed.
(§5) Figure 3 Extracellular pH measurement after 48 h of HT-29 and MDA-MB-231 cancer cells in normoxia and hypoxia upon treatment with compound 10a and 10h (0.1 and 0.5 mM).

MDA-MB-231 cancer cells = assay: Extracellular pH measurement, MDA-MB-231; type: cell-based, human; details: MDA-MB-231, 0.1 and 0.5 mM, 48 h, normoxia and hypoxia
Procedure: as §4, §5

MCF-10A cell line = assay: Cytotoxicity against normal cell line MCF-10A (MTT assay); type: cell-based; details: Homo sapiens
Plasma stability assay = type: in vitro ADME; details: male, SD, pH 7.4, rat plasma, 37 °C
Procedure: In fact, most drugs reach their targets to show their pharmacological activity via the circulation system, therefore, the plasma stability of the target compound is a crucial consideration for the evaluation of its druggability. Therefore, the in vitro plasma stability assay of the representative compound was also performed in this study.
Rat plasma was collected from adult male SD rats. The in vitro stability of 10a was determined in rat plasma and in PBS at 37 °C, at the meantime, samples were taken at time points 0, 10, 30, 60, and 120, and tested by HPLC. The rest of the time was incubated in a constant temperature shaker to compare different time points. Compare the peak areas of 10a in PBS or in rat plasma (pH = 7.4, 37 °C) before and after constant temperature incubation at different time points. The compounds in rat plasma were extracted with methanol, centrifuged, and repeated three times, and then detected with a preparative liquid phase at 254 wavelength.

hERG channel = target: T3, hERG channel (Homo sapiens, UniProt Q12809); assay: Inhibition evaluation on hERG K+ channel (whole-cell recording, HEK 293); type: cell-based; details: HEK 293 cells stably transfected with hERG
T3 construct: expressed in transfected cells; host or cells: HEK 293
T3 sequence (Q12809 whole entry): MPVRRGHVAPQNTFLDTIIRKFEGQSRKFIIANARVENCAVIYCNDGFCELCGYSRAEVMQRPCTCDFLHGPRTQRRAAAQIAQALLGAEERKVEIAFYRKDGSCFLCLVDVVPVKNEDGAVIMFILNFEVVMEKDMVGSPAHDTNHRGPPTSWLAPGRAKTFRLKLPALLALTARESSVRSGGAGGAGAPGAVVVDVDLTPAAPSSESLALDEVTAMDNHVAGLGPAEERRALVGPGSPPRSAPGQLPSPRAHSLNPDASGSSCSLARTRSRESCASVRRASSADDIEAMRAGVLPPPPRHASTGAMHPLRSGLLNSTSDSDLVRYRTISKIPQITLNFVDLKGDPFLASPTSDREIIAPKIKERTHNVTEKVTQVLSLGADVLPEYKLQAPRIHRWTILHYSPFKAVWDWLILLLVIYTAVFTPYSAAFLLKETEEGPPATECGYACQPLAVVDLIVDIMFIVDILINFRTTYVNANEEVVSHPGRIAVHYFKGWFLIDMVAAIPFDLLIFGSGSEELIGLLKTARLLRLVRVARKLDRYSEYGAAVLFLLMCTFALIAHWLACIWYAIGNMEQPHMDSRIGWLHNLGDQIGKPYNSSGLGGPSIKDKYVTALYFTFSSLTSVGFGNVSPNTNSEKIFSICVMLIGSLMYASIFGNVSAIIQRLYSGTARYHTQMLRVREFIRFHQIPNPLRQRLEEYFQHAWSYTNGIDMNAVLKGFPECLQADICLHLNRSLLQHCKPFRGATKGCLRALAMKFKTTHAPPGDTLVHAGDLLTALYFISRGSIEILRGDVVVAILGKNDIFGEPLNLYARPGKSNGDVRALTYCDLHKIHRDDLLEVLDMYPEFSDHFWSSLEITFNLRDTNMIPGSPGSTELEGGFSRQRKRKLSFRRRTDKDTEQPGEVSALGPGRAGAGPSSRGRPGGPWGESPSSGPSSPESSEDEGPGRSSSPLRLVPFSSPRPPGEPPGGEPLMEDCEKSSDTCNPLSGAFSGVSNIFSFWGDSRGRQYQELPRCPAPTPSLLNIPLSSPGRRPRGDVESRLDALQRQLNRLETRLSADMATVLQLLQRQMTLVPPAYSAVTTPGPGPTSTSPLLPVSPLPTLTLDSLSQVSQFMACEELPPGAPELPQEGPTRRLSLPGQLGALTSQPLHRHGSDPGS
Procedure: HEK 293 cells were stably transfected with human Ether-a-gogo related gene (hERG) channel. The voltage-gated hERG potassium channel current was recorded at room temperature from randomly selected transfected cells using whole-cell recording technique with an EPC10 USB (HEKA) or Multiclamp 700 B amplifier (Molecular Devices) while electrical data was digitalized by Digidata1440 A with acquisition rate of 10 kHz and signals filtered at 2.5 KHz using Patchmaster or pClamp 10, respectively. Dofetilide was included as a positive control to ensure the accuracy and sensitivity of the test system. All experiments were performed in 3 times.

[1] = Acute toxicity assay in mice; details: mouse, in vivo, oral, mice, expected from preliminary data
Procedure: (§6) Finally, acute toxicity of representative compounds was conducted in mice to preliminarily evaluate the risk of target compounds to mammals. […].
(§7) […]. After the compound was administered, the latency of death was observed and recorded over a span of 14 days. The experimental protocols were evaluated and approved by the ethics committee of the Shenyang Pharmaceutical University.

mice = assay: Acute toxicity assay in mice; details: mouse, in vivo, 14 days
Procedure: as §6, §7

[2] = Metabolic stability in mouse liver microsomes
in vitro = details: mouse, microsomes

SMILES: O=c1ccc2ccc(OCc3cn([C@@H]4O[C@H](CO)[C@@H](O)[C@H](O)[C@H]4O)nn3)cc2o1 [Compound 10a, 7-[(1-β-. D-glucopyranosyl-1H-1,2,3-triazol-4-yl)methoxy]-2H-chromen-2-one]
- IC50 (hCA I): 33.2 µM
- IC50 (hCA II): 21.5 µM
- IC50 (hCA IX; human recombinant enzyme, esterase assay, 4-nitrophenylacetate as substrate): 0.011 µM
- Selectivity Ratio hCA I/hCA IX (hCA IX; ratio of IC50 values): 3018
- Selectivity Ratio hCA II/hCA IX (hCA IX; ratio of IC50 values): 1955
- viability at 100 µM (HT-29 cells; hypoxia (0.5% O2, 5% CO2 and 94.5% N2), read-out: Cell Viability (%) HT-29 Hypoxia): 32.5%
- viability at 100 µM (HT-29 cells; normoxia, read-out: Cell Viability (%) HT-29 Normoxia): 40.2%
- viability at 100 µM (MDA-MB-231 cells; hypoxia (0.5% O2, 5% CO2 and 94.5% N2), read-out: Cell Viability (%) MDA-MB-231 Hypoxia): 32.9%
- viability at 100 µM (MDA-MB-231 cells; normoxia, read-out: Cell Viability (%) MDA-MB-231 Normoxia): 51.3%
- Effect on extracellular acidification (extracellular pH) (HT-29 cancer cells): important impact on the extracellular acidification
- Effect on extracellular acidification (extracellular pH) (MDA-MB-231 cancer cells): important impact on the extracellular acidification
- IC50 (MCF-10A cell line): > 100 µM
- remaining at 0 h (Plasma stability assay; time point 0 min): 100%
- remaining at 10 min (Plasma stability assay; time point 10 min): 115%
- remaining at 0.5 h (Plasma stability assay; time point 30 min): 93%
- remaining at 1 h (Plasma stability assay; time point 60 min): 86%
- remaining at 2 h (Plasma stability assay; time point 120 min): 102%
- half-life (Plasma stability assay; read-out: T1/2 plasma stability): > 20.5 h
- IC50 (hERG channel): > 50 µM
- LD50 at 14 days [1]: > 1500 mg/kg
- Survival Quantity/Total Quantity (mice; 500 mg/kg): 5/5
- Survival Quantity/Total Quantity (mice; 1000 mg/kg): 5/5
- Survival Quantity/Total Quantity (mice; 1500 mg/kg): 5/5
- CLint scaled at 1 μM ([2]; mouse, liver microsomes): 4.76 mL/min/kg
- half-life at 1 μM ([2]; mouse, liver microsomes): 19.2 h

SMILES: O=C(O)Cc1ccccc1Nc1c(Cl)cccc1Cl [Diclofenac, reference compound]
- half-life at 1 μM (in vitro): 0.667 h
- CL ([2]; mouse liver microsomes, 1 μΜ test compound): 137.4 mL/min/kg
